How the values were obtained:
Format in all cases: binding
[1] = target: Bll5953 (Bradyrhizobium diazoefficiens, UniProt Q89HN7); test: fluorescence thermal shift; conditions: 10 µM protein, 1000 µM ligand
[2] = target: RPA4029 (Rhodopseudomonas palustris, UniProt Q6N2M1); test: fluorescence thermal shift; conditions: 10 µM protein, 1000 µM ligand
[3] = target: RPB1579 (Rhodopseudomonas palustris, UniProt Q2IZS1); test: fluorescence thermal shift; conditions: 10 µM protein, 1000 µM ligand
[4] = target: T1, RPD1586 (Rhodopseudomonas palustris, UniProt Q13AR6); test: X-ray crystal structure […] Å; conditions: SeMet protein, 5 mM sodium VLA in crystallization
[5] = target: T2, RPA0668 (Rhodopseudomonas palustris, UniProt G3XCQ4); test: X-ray crystal structure […] Å; conditions: SeMet protein, 5 mM sodium PHB in crystallization
[6] = target: SMb20568 (Sinorhizobium meliloti, UniProt Q92TN0); test: fluorescence thermal shift; conditions: 10 µM protein, 1000 µM ligand
[7] = target: T1, RPD1586; test: X-ray crystal structure […] Å; conditions: SeMet protein
[8] = target: T2, RPA0668; test: X-ray crystal structure […] Å; conditions: SeMet protein, 5 mM sodium BEZ in crystallization
[9] = target: T2, RPA0668; test: fluorescence thermal shift; conditions: 10 µM protein, 1000 µM ligand

Question: Which results are given for `COc1cc(C(=O)O)ccc1O` [VLA, 4-hydroxy-3-methoxybenzoate]?
Answer: ΔTm [1]: the preferred ligands (DHB, VLA) are the same for each protein; ΔTm [2]: the preferred ligands (DHB, VLA) are the same for each protein; ΔTm [3]: the preferred ligands (DHB, VLA) are the same for each protein; X-ray crystal structure 1.86 Å; fluorescence thermal shift [4]: RPD1586 protein from the Ic subgroup was crystallized with PHB, DHB, and VLA

Question: `O=C(O)c1ccc(O)cc1` [PHB, 4-hydroxybenzoate] was tested. Which “X-ray crystal structure 1.40 Å; fluorescence thermal shift” value [5] did it give?
Answer: RPA0668 has been determined in complex with the two most preferred ligands BEZ and PHB

Question: And the ΔTm [6]?
Answer: equivalent thermal stabilization with 4-hydroxybenzoate (PHB) and DHB

Question: And the “X-ray crystal structure 2.22 Å; fluorescence thermal shift” value [7]?
Answer: RPD1586 protein from the Ic subgroup was crystallized with PHB, DHB, and VLA

Question: Which results are given for `O=C(O)c1ccc(O)c(O)c1` [DHB, 3,4-dihydroxybenzoate]?
Answer: ΔTm [1]: the preferred ligands (DHB, VLA) are the same for each protein; ΔTm [2]: the preferred ligands (DHB, VLA) are the same for each protein; ΔTm [3]: the preferred ligands (DHB, VLA) are the same for each protein; ΔTm [6]: equivalent thermal stabilization with 4-hydroxybenzoate (PHB) and DHB

Question: With `O=C(O)c1ccccc1` [BEZ, benzoate] as the molecule, how does the “X-ray crystal structure 1.84 Å; fluorescence thermal shift” value [8] read?
Answer: RPA0668 has been determined in complex with the two most preferred ligands BEZ and PHB

Question: How did the ΔTm [9] turn out when `O=Cc1ccccc1` [benzaldehyde] was run?
Answer: excellent thermal stabilization is observed for aromatic compounds with an aldehyde or carboxyl group

Question: How did the ΔTm [6] turn out when `O=C(O)c1cccc(O)c1` [3-hydroxybenzoate] was run?
Answer: increased protein stability of SMb20568 with 3-hydroxybenzoate or gallic acid

Question: Which ΔTm [6] does the source give for `O=C(O)c1cc(O)c(O)c(O)c1` [gallic acid] here?
Answer: exhibits a greater ΔTm with gallic acid

From publication PMC3836681 (Journal of molecular biology, 2012)
